Measurements as given in patent US6465654B2, “Process for preparing 1-substituted, 2-substituted 1H-imidazo[4, 5-c]quinoline-4-amines” (3M Innovative Properties Company, priority 1991, dated 2002).

Key:
interferon-α = test: Interferon-α induction in human cells, PBM; format: cell-based; conditions: 24 hours
interferon = test: Interferon induction in mice; format: in vivo; conditions: mouse serum
Description: One hour later blood samples are withdrawn from the first group. The samples are pooled then centrifuged. The serum is removed from the centrifuge tube, split into two portions, then placed in freezing vials and maintained at −70° C. until analysis. This procedure is repeated at 2 hours with the second group of mice and at 4 hours with the third group of mice. Samples are assayed as described above in connection with the analysis of interferon induction in human cells. The results are expressed in the table below as α/β reference units/mL based on the value obtained for a mouse MU-1-IF standard. Results are shown in the table below wherein results designated as “<” a certain number indicate that interferon was not detectable in amounts above the lower sensitivity level of the assay.

Compound | Interferon-α induction (interferon-α; dose concentration 0.01 μg/mL) | Interferon-α induction (interferon-α; dose concentration 0.05 μg/mL) | Interferon-α induction (interferon-α; dose concentration 0.10 μg/mL) | Interferon-α induction (interferon-α; dose concentration 0.50 μg/mL) | Interferon-α induction (interferon-α; dose concentration 1.0 μg/mL) | Interferon-α induction (interferon-α; dose concentration 5.0 μg/mL) | Interferon induction in mice (interferon; oral 0.3 mg/kg, 1 hr) [Reference Units/mL] | Interferon induction in mice (interferon; oral 0.3 mg/kg, 2 hr) [Reference Units/mL] | Interferon induction in mice (interferon; oral 0.3 mg/kg, 4 hr) | Interferon induction in mice (interferon; oral 1 mg/kg, 1 hr) | Interferon induction in mice (interferon; oral 1 mg/kg, 2 hr) | Interferon induction in mice (interferon; oral 1 mg/kg, 4 hr) | Interferon induction in mice (interferon; oral 3 mg/kg, 1 hr) | Interferon induction in mice (interferon; oral 3 mg/kg, 2 hr) | Interferon induction in mice (interferon; oral 3 mg/kg, 4 hr) [Reference Units/mL] | Interferon induction in mice (interferon; oral 10 mg/kg, 1 hr) [Reference Units/mL] | Interferon induction in mice (interferon; oral 10 mg/kg, 2 hr) [Reference Units/mL] | Interferon induction in mice (interferon; oral 10 mg/kg, 4 hr)
COCc1nc2c(N)nc3ccccc3c2n1Cc1ccccc1 [Example 104, 2-Methoxymethyl-1-phenylmethyl-1H-imidazo[4,5-c]quinolin-4-amine] | <2.7 α Reference Units/mL | <2.7 α Reference Units/mL | 310 α Reference Units/mL | 180 α Reference Units/mL | 140 α Reference Units/mL | 310 α Reference Units/mL | <380 | <380 | <380 Reference Units/mL | ˜780 Reference Units/mL | ˜780 Reference Units/mL | ˜380 Reference Units/mL | ≦660 Reference Units/mL | 2200 Reference Units/mL | <380 | 3400 | 4500 | ≦660 Reference Units/mL
4-Amino-N-hydroxyethyl-N-methyl-1-phenylmethyl-1H-imidazo[4,5-c]quinoline-2-methanamine Hemihydrate [Example 30] | – | – | <4 α Reference Units/mL | <4 α Reference Units/mL | <4 α Reference Units/mL | 72 α Reference Units/mL | <120 | <120 | <120 Reference Units/mL | <120 Reference Units/mL | <120 Reference Units/mL | <120 Reference Units/mL | <120 Reference Units/mL | <120 Reference Units/mL | <120 | <120 | 600 | <120 Reference Units/mL
4-Amino-α-butyl-1-(2-methylpropyl)-1H-imidazo[4,5-c]quinoline-2-methanol Hemihydrate [Example 60] | – | – | 1700 α Reference Units/mL | 430 α Reference Units/mL | 570 α Reference Units/mL | 570 α Reference Units/mL | 120 | 870 | ≦56 Reference Units/mL | 290 Reference Units/mL | 1500 Reference Units/mL | 120 Reference Units/mL | 380 Reference Units/mL | 870 Reference Units/mL | 290 | 870 | 3400 | 1100 Reference Units/mL
CC(C)Cn1c(C(O)c2ccc(Cl)cc2)nc2c(N)nc3ccccc3c21 (stereo not drawn) [Example 55, 4-Amino-α-(4-chlorophenyl)-1-(2-methylpropyl)-1H-imidazo[4,5-c]quinoline-2-methanol] | – | – | <4 α Reference Units/mL | 1500 α Reference Units/mL | 1500 α Reference Units/mL | 490 α Reference Units/mL | – | – | – | – | – | – | – | – | – | – | – | –
CC(=O)OC(C)c1nc2c(N)nc3ccccc3c2n1CC(C)C.O (stereo not drawn) [Example 69, 4-Amino-α-methyl-1-(2-methylpropyl)-1H-imidazo[4,5-c]quinoline-2-methyl Acetate Hydrate] | <6.4 α Reference Units/mL | <6.4 α Reference Units/mL | 1000 α Reference Units/mL | 680 α Reference Units/mL | 390 α Reference Units/mL | 900 α Reference Units/mL | <150 | <150 | <150 Reference Units/mL | <150 Reference Units/mL | <150 Reference Units/mL | <150 Reference Units/mL | ≦270 Reference Units/mL | ≦150 Reference Units/mL | <150 | 1000 | 1000 | ≦340 Reference Units/mL
